Experimental data from patent publication US20260217701A1, “SELECTIVE BET INHIBITORS AND USES THEREOF” (Tay Therapeutics Limited, priority 2022, published 2026).
“And” between values parts separate entries of the source, which are not always exact repeats. Equal entries are not always repeated.

System: imiquimod-induced psoriasis
Experiment: Imiquimod-induced psoriasis model
Format: in vivo, mice
Parameters: Spleen Weight / Spleen Weight Ratio: unit not given here
Conditions: for PASI Scores: IMI + Deucravacitinib 3 mg/kg; for Mean scores of the presence of erythema on the skin of animals at the area of induction of psoriasis / Mean scores of the presence of induration on the skin of animals at the area of induction of psoriasis / Mean scores of the presence of peeling on the skin of animals at the area of induction of psoriasis: mean ± SEM
Text: Imiquimod-induced psoriasis is a model of psoriasis in mice that induces psoriasis-like dermatitis. The pathology closes resembles human plaque-type psoriasis and is a valuable tool for testing new therapies against psoriasis. […] Compound A was formulated in a 5% DMSO/40% PEG-400/55% (0.9% NaCl w/v water) solution (Table 2F). Experimental groups for the study are outlined in Table 4. Prior to study initiation, the backs of all animals in the study were depilated to allow for induction of psoriasis and monitoring of disease progression.
Once assigned to experimental groups, on Day 1 and continuing through Day 14, topical imiquimod (IMI; Aldara™ containing 5% Imiquimod) was administered to the dorsal depilated animals, and animals in group 1 received topical administration of Excipial® hydrocream (65 mg). […] Clobetasol was applied topically for animals in group 11.
Body weights were recorded three times a week from Day 1 to Day 8, and daily from Day 8 until the study end at Day 15. At termination on D15 the spleen weight ratio was determined. Disease severity was assessed using the psoriasis area severity index (PASI) daily from Day 8 until study completion on Day 15. The PASI score was calculated based on three parameters (presence of erythema, induration of the skin, and peeling of the skin at the area of induction) on a scale of 0 to 4 (0=no more or absence, 1=low, 2=moderate, 3=high, 4=severe). The PASI score for each animal was calculated as the sum of the score of each parameter measured. The score of the use of enrichment (SUE) was also assessed daily from Day 8 to Day 15. At study completion on Day 15, animal behavior was evaluated using an open field to assess distance travelled, number scratching, and licking and rearing performed in 10 minutes. Upon study termination animals were sacrificed, the spleen was excised and weighed, and blood samples were collected. Serum was isolated from the blood sample for cytokine and other biomarker analysis. IL-1B, IL-6, IL-17, and TNF-α assayed using simple plex technique on an ELLA automated immunoassay system. IL-22 and IL-23 were assayed by ELISA.
The imiquimod-induced model of psoriasis was used to assess the efficacy of Compound A in treating psoriasis. […] Treatment started on Day 8 after induction so reference to day 1 of treatment is to Day 8 and day 7 of treatment is to Day 14.

[1] = IMI-psoriasis model, behavioral evaluation D15, 3 mg/kg, individual animals
[2] = IMI-psoriasis model, behavioral evaluation, 3 mg/kg, individual animals
[3] = IMI-psoriasis model, mice, 3 mg/kg, individual animals
[4] = IMI + 3 mg/kg, D8 (before start of treatment)

Deucravacitinib [reference compound]
symptoms by day 15 (representative images) (3 mg/kg): nearly entirely symptom free | PASI-90 (change in PASI score ≥90%) by day 7 of treatment (3 mg/kg IP once daily): surpassed PASI-90 | Body Weight D1 (IMI + 3 mg/kg, Day 1 (before treatment start on Day 8), individual animals, 3 mg/kg, in g (unit assumed)): 18.26 and 17.37 and 16.82 and 17.07 and 16.32 and 18.04 and 16.47 and 17.58 | Body Weight D3 (IMI + 3 mg/kg, Day 3 (before treatment start on Day 8), individual animals, 3 mg/kg, in g (unit assumed)): 16.20 and 16.31 and 14.76 and 15.24 and 15.52 and 15.99 and 14.97 and 15.55 | Body Weight D5 (IMI + 3 mg/kg, Day 5 (before treatment start on Day 8), individual animals, 3 mg/kg, in g (unit assumed)): 18.16 and 16.94 and 15.74 and 15.23 and 15.99 and 17.09 and 14.94 and 16.50 | Body Weight D7 (IMI + 3 mg/kg, Day 7 (before treatment start on Day 8), individual animals, 3 mg/kg, in g (unit assumed)): 17.33 and 17.08 and 15.79 and 15.48 and 16.18 and 17.55 and 15.22 and 16.65 | Body Weight D8 (IMI + 3 mg/kg, Day 8 (first day of treatment), individual animals, 3 mg/kg, in g (unit assumed)): 17.09 and 17.16 and 15.63 and 15.50 and 15.52 and 17.05 and 14.52 and 15.81 | Body Weight D9 (IMI + 3 mg/kg, Day 9, individual animals, 3 mg/kg, in g (unit assumed)): 16.60 and 16.54 and 15.63 and 15.57 and 16.01 and 16.79 and 14.75 and 13.93 | Body Weight D10 (IMI + 3 mg/kg, Day 10, individual animals, 3 mg/kg, in g (unit assumed)): 16.71 and 16.43 and 16.08 and 15.84 and 14.94 and 16.16 and 14.20 | Body Weight D11 (IMI + 3 mg/kg, Day 11, individual animals, 3 mg/kg, in g (unit assumed)): 17.38 and 15.87 and 15.51 and 15.55 and 16.43 and 14.72 | Body Weight D12 (IMI + 3 mg/kg, Day 12, individual animals, 3 mg/kg, in g (unit assumed)): 17.70 and 15.90 and 15.59 and 15.82 and 17.15 and 15.06 | Body Weight D13 (IMI + 3 mg/kg, Day 13, individual animals, 3 mg/kg, in g (unit assumed)): 17.75 and 16.24 and 15.77 and 15.95 and 16.97 and 14.52 | Body Weight D14 (IMI + 3 mg/kg, Day 14, individual animals, 3 mg/kg, in g (unit assumed)): 18.00 and 16.31 and 15.59 and 16.06 and 17.07 and 15.08 | Body Weight D15 (IMI + 3 mg/kg, Day 15, individual animals, 3 mg/kg, in g (unit assumed)): 18.03 and 16.39 and 16.00 and 16.29 and 17.17 and 15.22 | MBWC D1-D8 (IMI + 3 mg/kg, body weight change Day 1 to Day 8 (before treatment), individual animals, 3 mg/kg): −1.17 and −0.21 and −1.19 and −1.57 and −0.80 and −0.99 and −1.95 and −1.77 | MBWC D8-D15 (IMI + 3 mg/kg, body weight change Day 8 to Day 15 (treatment period), individual animals, 3 mg/kg): 0.94 and 0.76 and 0.50 and 0.77 and 0.12 and 0.70 | PASI Scores (D8 (day treatment started), individual animals): 6 (3×) and 7 and 10 and 8 (3×) | PASI Scores (D9, individual animals): 7 (3×) and 6 (4×) and 8 | PASI Scores (D10, individual animals): 6 (6×) and 7 | PASI Scores (D11, individual animals): 6 (3×) and 5 (2×) and 4 | PASI Scores (D12, individual animals): 4 (2×) and 3 (4×) | PASI Scores (D13, individual animals): 2 (3×) and 0 (2×) and 4 | PASI Scores (D14, individual animals): 1 (4×) and 0 and 2 | PASI Scores (D15, individual animals): 1 (2×) and 0 (4×) | Use Enrichment D1 (IMI-psoriasis model, D1, 3 mg/kg, per cage (two animals)): 4.0 | Use Enrichment D10 (IMI-psoriasis model, D10, 3 mg/kg, per cage (two animals)): 0.0 | Use Enrichment D14 (IMI-psoriasis model, D14, 3 mg/kg, per cage (two animals)): 3.0 and 3.5 and 2.0 | Use Enrichment D15 (IMI-psoriasis model, D15, 3 mg/kg, per cage (two animals)): 4.0 and 2.0 | Number Licking [1]: 1 and 2 (2×) and 7 and 8 | Number Licking + Scratching [1]: 2 (3×) and 10 and 20 | Number Scratching [1]: 1 and 0 (2×) and 3 and 12 | Distance Traveled [2]: 14 m (2×) and 9 m and 19 m and 12 m | Number Rearings [2]: 31 and 22 and 58 and 68 and 38 | Use Enrichment Mean D1-D8 (IMI-psoriasis model, mean D1-D8, 3 mg/kg, per cage (two animals)): 2.50 and 2.00 | Spleen Weight [3]: 195.00 and 187.27 and 171.30 and 177.57 and 171.11 and 127.21 | Spleen Weight Ratio [3]: 1081.53 and 1142.59 and 1070.63 and 1090.06 and 996.56 and 835.81 | Mean scores of the presence of erythema on the skin of animals at the area of induction of psoriasis [4]: 2.1 ± 0.1 | Mean scores of the presence of induration on the skin of animals at the area of induction of psoriasis [4]: 2.8 ± 0.3 | Mean scores of the presence of peeling on the skin of animals at the area of induction of psoriasis [4]: 2.5 ± 0.2 | Mean scores of the presence of erythema on the skin of animals at the area of induction of psoriasis (IMI + 3 mg/kg, D9): 2.1 ± 0.1 | Mean scores of the presence of induration on the skin of animals at the area of induction of psoriasis (IMI + 3 mg/kg, D9): 2.4 ± 0.2 | Mean scores of the presence of peeling on the skin of animals at the area of induction of psoriasis (IMI + 3 mg/kg, D9): 2.1 ± 0.1 | Mean scores of the presence of erythema on the skin of animals at the area of induction of psoriasis (IMI + 3 mg/kg, D10): 2.3 ± 0.2 | Mean scores of the presence of induration on the skin of animals at the area of induction of psoriasis (IMI + 3 mg/kg, D10): 2.0 ± 0.2 | Mean scores of the presence of peeling on the skin of animals at the area of induction of psoriasis (IMI + 3 mg/kg, D10): 1.9 ± 0.1 | Mean scores of the presence of erythema on the skin of animals at the area of induction of psoriasis (IMI + 3 mg/kg, D11): 1.8 ± 0.4 | Mean scores of the presence of induration on the skin of animals at the area of induction of psoriasis (IMI + 3 mg/kg, D11): 1.5 ± 0.2 | Mean scores of the presence of peeling on the skin of animals at the area of induction of psoriasis (IMI + 3 mg/kg, D11): 2.0 ± 0.3 | Mean scores of the presence of erythema on the skin of animals at the area of induction of psoriasis (IMI + 3 mg/kg, D12): 1.8 ± 0.2 | Mean scores of the presence of induration on the skin of animals at the area of induction of psoriasis (IMI + 3 mg/kg, D12): 0.5 ± 0.2 | Mean scores of the presence of peeling on the skin of animals at the area of induction of psoriasis (IMI + 3 mg/kg, D12): 1.0 ± 0.0 | Mean scores of the presence of erythema on the skin of animals at the area of induction of psoriasis (IMI + 3 mg/kg, D13): 0.8 ± 0.3 | Mean scores of the presence of induration on the skin of animals at the area of induction of psoriasis (IMI + 3 mg/kg, D13): 0.0 ± 0.0 | Mean scores of the presence of peeling on the skin of animals at the area of induction of psoriasis (IMI + 3 mg/kg, D13): 0.8 ± 0.3 | Mean scores of the presence of erythema on the skin of animals at the area of induction of psoriasis (IMI + 3 mg/kg, D14): 0.2 ± 0.2 | Mean scores of the presence of induration on the skin of animals at the area of induction of psoriasis (IMI + 3 mg/kg, D14): 0.0 ± 0.0 | Mean scores of the presence of peeling on the skin of animals at the area of induction of psoriasis (IMI + 3 mg/kg, D14): 0.8 ± 0.2 | Mean scores of the presence of erythema on the skin of animals at the area of induction of psoriasis (IMI + 3 mg/kg, D15): 0.0 ± 0.0 | Mean scores of the presence of induration on the skin of animals at the area of induction of psoriasis (IMI + 3 mg/kg, D15): 0.0 ± 0.0 | Mean scores of the presence of peeling on the skin of animals at the area of induction of psoriasis (IMI + 3 mg/kg, D15): 0.3 ± 0.2 | Mean PASI Scores in IMI-Psoriasis Model (mice, IMI + 3 mg/kg, D8 (before start of treatment)): 7.4 ± 0.5 | Mean PASI Scores in IMI-Psoriasis Model (mice, IMI + 3 mg/kg, D9): 6.6 ± 0.3 | Mean PASI Scores in IMI-Psoriasis Model (mice, IMI + 3 mg/kg, D10): 6.1 ± 0.1 | Mean PASI Scores in IMI-Psoriasis Model (mice, IMI + 3 mg/kg, D11): 5.3 ± 0.3 | Mean PASI Scores in IMI-Psoriasis Model (mice, IMI + 3 mg/kg, D12): 3.3 ± 0.2 | Mean PASI Scores in IMI-Psoriasis Model (mice, IMI + 3 mg/kg, D13): 1.7 ± 0.6 | Mean PASI Scores in IMI-Psoriasis Model (mice, IMI + 3 mg/kg, D14): 1.0 ± 0.3 | Mean PASI Scores in IMI-Psoriasis Model (mice, IMI + 3 mg/kg, D15): 0.3 ± 0.2 | use of enrichment (nesting) (relative to vehicle-treated psoriasis animals): about half that seen with Compound A
